We go through 44 molecules from patent publication US8685977B2, “Chemical compounds” (Pfizer Limited, priority 2010, dated 2014).

The target of the experiment is T1, Nav1.7 (or SCN9A) channel (Homo sapiens, UniProt Q15858).
T1 construct: expressed in transfected cells
T1 sequence (Q15858 whole entry): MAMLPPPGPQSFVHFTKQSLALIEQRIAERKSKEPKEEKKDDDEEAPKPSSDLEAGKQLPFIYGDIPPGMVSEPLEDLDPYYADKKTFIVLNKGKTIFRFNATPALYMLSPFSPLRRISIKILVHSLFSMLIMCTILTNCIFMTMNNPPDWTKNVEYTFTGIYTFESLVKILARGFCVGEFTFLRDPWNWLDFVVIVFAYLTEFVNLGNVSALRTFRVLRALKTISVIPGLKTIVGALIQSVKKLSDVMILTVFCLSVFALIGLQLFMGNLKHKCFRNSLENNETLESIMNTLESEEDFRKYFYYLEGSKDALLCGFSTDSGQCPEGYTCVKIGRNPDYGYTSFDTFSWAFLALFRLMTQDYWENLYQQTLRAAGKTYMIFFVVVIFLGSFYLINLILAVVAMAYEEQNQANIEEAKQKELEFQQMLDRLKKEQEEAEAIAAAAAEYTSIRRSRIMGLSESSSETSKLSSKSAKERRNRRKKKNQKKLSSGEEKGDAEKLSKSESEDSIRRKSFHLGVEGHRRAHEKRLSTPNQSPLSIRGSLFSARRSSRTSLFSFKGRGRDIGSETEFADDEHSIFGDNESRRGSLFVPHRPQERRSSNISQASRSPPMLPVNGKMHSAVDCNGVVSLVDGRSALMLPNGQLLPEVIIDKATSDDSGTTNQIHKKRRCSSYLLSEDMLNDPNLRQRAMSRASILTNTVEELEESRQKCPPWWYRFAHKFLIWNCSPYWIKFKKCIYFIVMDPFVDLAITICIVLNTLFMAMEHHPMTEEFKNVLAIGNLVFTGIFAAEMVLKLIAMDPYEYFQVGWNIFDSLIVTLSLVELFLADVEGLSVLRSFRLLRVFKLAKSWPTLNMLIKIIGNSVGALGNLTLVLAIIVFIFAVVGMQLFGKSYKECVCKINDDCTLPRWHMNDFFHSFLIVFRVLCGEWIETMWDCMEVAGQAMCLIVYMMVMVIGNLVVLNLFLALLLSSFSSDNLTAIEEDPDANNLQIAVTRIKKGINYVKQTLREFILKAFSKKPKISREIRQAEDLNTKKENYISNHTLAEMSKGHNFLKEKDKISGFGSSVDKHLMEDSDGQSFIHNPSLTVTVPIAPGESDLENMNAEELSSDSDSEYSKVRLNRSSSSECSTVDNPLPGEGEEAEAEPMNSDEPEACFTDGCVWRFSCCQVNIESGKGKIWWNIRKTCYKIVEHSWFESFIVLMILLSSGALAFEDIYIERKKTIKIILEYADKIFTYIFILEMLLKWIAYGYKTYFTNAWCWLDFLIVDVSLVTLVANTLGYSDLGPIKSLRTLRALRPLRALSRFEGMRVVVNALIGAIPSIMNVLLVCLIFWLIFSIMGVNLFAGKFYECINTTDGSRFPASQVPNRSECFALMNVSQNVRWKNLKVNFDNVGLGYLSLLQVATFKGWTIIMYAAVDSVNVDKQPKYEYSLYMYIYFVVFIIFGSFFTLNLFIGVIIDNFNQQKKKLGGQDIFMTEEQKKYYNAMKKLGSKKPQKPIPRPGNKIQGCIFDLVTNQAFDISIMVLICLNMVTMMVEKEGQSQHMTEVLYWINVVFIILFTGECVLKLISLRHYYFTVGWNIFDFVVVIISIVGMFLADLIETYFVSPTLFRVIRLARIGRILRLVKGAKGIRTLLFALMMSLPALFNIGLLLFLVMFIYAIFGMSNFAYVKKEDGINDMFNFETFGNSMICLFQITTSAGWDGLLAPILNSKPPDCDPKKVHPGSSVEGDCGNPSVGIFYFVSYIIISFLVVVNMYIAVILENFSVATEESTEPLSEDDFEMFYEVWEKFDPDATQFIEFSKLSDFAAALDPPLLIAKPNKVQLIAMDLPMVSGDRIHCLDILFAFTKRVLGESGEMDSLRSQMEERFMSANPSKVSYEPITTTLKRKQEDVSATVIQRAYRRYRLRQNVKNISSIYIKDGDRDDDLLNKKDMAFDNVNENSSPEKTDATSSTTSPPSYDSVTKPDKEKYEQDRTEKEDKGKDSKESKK
The experiment in a line: Nav1.7 PatchXpress 7000 automated electrophysiology assay (HEK cells stably expressing hSCN9A). Format: cell-based. The note with it: voltage-clamped at V1/2 of inactivation, read-out: Nav1.7 EIC50. A digest of the protocol: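 Automated whole-cell clamp (PatchXpress) of HEK cells stably expressing hSCN9A, at 22-24 °C, in extracellular buffer at pH 7.4. Cells were held at the measured V1/2 of inactivation, then stepped to 0 mV for 20 ms. Single-concentration % inhibition gave EIC50 = concentration × (100 − %inhibition)/%inhibition, excluding <20% or >80%.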
For `CS(=O)(=O)NC(=O)c1ccc(Cc2cccc(OC(F)(F)F)c2)cc1` [Example 316, N-(Methylsulfonyl-1)-4-[3-(trifluoromethoxy)benzyl]benzamide], the IC50 turned out to be 1600 nM.
On to `Cc1cc(Oc2ccc(C(=O)NS(C)(=O)=O)cc2)ccc1F` [Example 199, 4-(4-fluoro-3-methylphenoxy)-N-(methylsulfonyl)benzamide], for which the IC50 was found to be 7600 nM.
With `COc1cc(Cl)ccc1Oc1ccc(C(=O)NS(C)(=O)=O)cc1C#N` [Example 63, 4-(4-chloro-2-methoxyphenoxy)-3-cyano-N-(methylsulfonyl)benzamide], the IC50 was above 3000 nM.
Next, `CS(=O)(=O)NC(=O)c1ccc(Nc2cccc(C(F)(F)F)c2)cc1` [Example 321, N-(methylsulfonyl)-4-(3-(trifluoromethyl)phenylamino)benzamide]: 320 nM; `CS(=O)(=O)NC(=O)c1cc(Cl)c(Oc2ccc(Cl)c(C(F)(F)F)c2)cc1F` [Example 16, 5-chloro-4-[4-chloro-3-(trifluoromethyl)phenoxy]-2-fluoro-N-(methylsulfonyl)benzamide]: 40 nM.
Next, `Cn1ccc(-c2ccccc2Oc2ccc(C(=O)NS(C)(=O)=O)cc2)n1` [Example 197, 4-[2-(1-methyl-1H-pyrazol-3-yl)phenoxy]-N-(methylsulfonyl)benzamide]: above 10000 nM; `CS(=O)(=O)NC(=O)c1cc(F)c(Oc2ccc(Cl)c(F)c2)cc1F` [Example 143, 4-(4-chloro-3-fluorophenoxy)-2,5-difluoro-N-(methylsulfonyl)benzamide]: 4700 nM.
With `CS(=O)(=O)NC(=O)c1ccc(Oc2cccc(C(F)(F)F)c2)c(Cl)c1` [Example 266, 3-chloro-N-(methylsulfonyl)-4-[3-(trifluoromethyl)phenoxy]benzamide], the IC50 was found to be 270 nM.
Next, `CS(=O)(=O)NC(=O)c1cc(F)c(Oc2cccc(OC(F)(F)F)c2)cc1F` [Example 124, 2,5-difluoro-N-(methylsulfonyl)-4-[3-(trifluoromethoxy)phenoxy]benzamide]: 490 nM; `CC(C)c1cccc(Oc2cc(F)c(C(=O)NS(C)(=O)=O)cc2F)c1` [Example 158, 2,5-difluoro-4-(3-isopropylphenoxy)-N-(methylsulfonyl)benzamide]: 840 nM.
As to `Cc1ccc(Oc2cc(F)c(C(=O)NS(C)(=O)=O)cc2F)cc1Cl` [Example 151, 4-(3-chloro-4-methylphenoxy)-2,5-difluoro-N-(methylsulfonyl)benzamide], the IC50 came out at 520 nM.
Regarding `CS(=O)(=O)NC(=O)c1ccc(Oc2ccc(Cl)c(Cl)c2)c(F)c1` [Example 34, 4-(3,4-dichlorophenoxy)-3-fluoro-N-(methylsulfonyl)benzamide], the IC50 is 1500 nM.
On to `CS(=O)(=O)NC(=O)c1ccc(Oc2ccc(F)c(Cl)c2)cc1` [Example 200, 4-(3-chloro-4-fluorophenoxy)-N-(methylsulfonyl)benzamide], for which the IC50 turned out to be 8100 nM.
In the case of `Cc1cccc(C)c1Oc1ccc(C(=O)NS(C)(=O)=O)cc1` [Example 193, 4-(2,6-dimethylphenoxy)-N-(methylsulfonyl)benzamide], the IC50 is above 10000 nM.
The same measure for `Cc1cc(Cl)cc(Oc2cc(F)c(C(=O)NS(C)(=O)=O)cc2F)c1` [Example 155, 4-(3-chloro-5-methylphenoxy)-2,5-difluoro-N-(methylsulfonyl)benzamide]: 5400 nM; for `CS(=O)(=O)NC(=O)c1ccc(Oc2ccc(Cl)c(Cl)c2)cc1F` [Example 28, 4-(3,4-dichlorophenoxy)-2-fluoro-N-(methylsulfonyl)benzamide]: 860 nM; for `Cc1cc(Oc2ccc(C(=O)NS(C)(=O)=O)cc2)ccc1Cl` [Example 170, 4-(4-chloro-3-methylphenoxy)-N-(methylsulfonyl)benzamide]: 1900 nM.
In the case of `Cc1cccc(Oc2ccc(C(=O)NS(C)(=O)=O)cc2)c1` [Example 254, 4-(3-methylphenoxy)-N-(methylsulfonyl)benzamide], the IC50 is 7500 nM.
Next, `COc1cc(Oc2ccc(Cl)c(C(F)(F)F)c2)ccc1C(=O)NS(C)(=O)=O` [Example 326, 4-(4-chloro-3-(trifluoromethyl)phenoxy)-2-methoxy-N-(methylsulfonyl)benzamide]: 4100 nM; `CS(=O)(=O)NC(=O)c1ccc(Oc2ccc(Cl)cc2)c(Cl)c1` [Example 214, 3-chloro-4-(4-chlorophenoxy)-N-(methylsulfonyl)benzamide]: 220 nM; `Cc1cc(C#N)cc(C)c1Oc1cc(F)c(C(=O)NS(C)(=O)=O)cc1F` [Example 132, 4-(4-cyano-2,6-dimethylphenoxy)-2,5-difluoro-N-(methylsulfonyl)benzamide]: above 3000 nM.
For `CS(=O)(=O)NC(=O)c1ccc(Oc2cccc3ccccc23)c(C#N)c1` [Example 283, 3-cyano-N-(methylsulfonyl)-4-(1-naphthyloxy)benzamide], the IC50 amounted to 8600 nM.
For `COc1cc(C(=O)NS(C)(=O)=O)ccc1Cc1ccc(Cl)c(Cl)c1` [Example 322, 4-(3,4-dichlorobenzyl)-3-methoxy-N-(methylsulfonyl)benzamide], the IC50 was above 3000 nM.
Next, `CS(=O)(=O)NC(=O)c1cc(F)c(Oc2ccccc2F)cc1F` [Example 107, 2,5-difluoro-4-(2-fluorophenoxy)-N-(methylsulfonyl)benzamide]: 9300 nM; `CCc1cc(F)ccc1Oc1cc(F)c(C(=O)NS(C)(=O)=O)cc1Cl` [Example 18, 5-chloro-4-(2-ethyl-4-fluorophenoxy)-2-fluoro-N-(methylsulfonyl)benzamide]: 370 nM.
On to `CS(=O)(=O)NC(=O)c1ccc(Oc2ccc(-c3ccccc3)cc2)cc1` [Example 245, 4-(biphenyl-4-yloxy)-N-(methylsulfonyl)benzamide], for which the IC50 was 1300 nM.
As for `CS(=O)(=O)NC(=O)c1cc(Cl)c(Oc2ccc(F)cc2)cc1F` [Example 296, 5-chloro-2-fluoro-4-(4-fluorophenoxy)-N-(methylsulfonyl)benzamide], the IC50 amounted to 390 nM.
Take `CS(=O)(=O)NC(=O)c1ccc(Sc2cccc(OC(F)(F)F)c2)cc1` [Example 318, N-(Methylsulfonyl)-4-{[3-(trifluoromethoxy)phenyl]sulfanyl}benzamide]: the IC50 came out at 5600 nM.
Next, `CS(=O)(=O)NC(=O)c1cc(Cl)c(Oc2cccc(Cl)c2)cc1F` [Example 292, 5-chloro-4-(3-chlorophenoxy)-2-fluoro-N-(methylsulfonyl)benzamide]: 620 nM; `COc1cc(Oc2ccc(Cl)cc2OC(F)(F)F)ccc1C(=O)NS(C)(=O)=O` [Example 39, 4-[4-chloro-2-(trifluoromethoxy)phenoxy]-2-methoxy-N-(methylsulfonyl)benzamide]: 9300 nM; `COc1cc(C(F)(F)F)ccc1Oc1cc(F)c(C(=O)NS(C)(=O)=O)cc1F` [Example 74, 2,5-difluoro-4-(2-methoxy-4-(trifluoromethyl)phenoxy)-N-(methylsulfonyl)benzamide]: above 1000 nM.
The same measure for `CS(=O)(=O)NC(=O)c1cc(F)c(Oc2ccc(OC(F)F)c(Cl)c2)cc1F` [Example 13, 4-[3-chloro-4-(difluoromethoxy)phenoxy]-2,5-difluoro-N-(methylsulfonyl)benzamide]: 2500 nM; for `Cn1nc(C(F)(F)F)cc1-c1ccc(Oc2ccc(C(=O)NS(C)(=O)=O)cc2)cc1` [Example 312, N-(methylsulfonyl)-4-{4-[1-methyl-3-(trifluoromethyl)-1H-pyrazol-5-yl]phenoxy}benzamide]: 3300 nM; for `CC(C)c1ccc(Oc2ccc(C(=O)NS(C)(=O)=O)cc2)cc1` [Example 173, 4-(4-isopropylphenoxy)-N-(methylsulfonyl)benzamide]: 1200 nM.
The same measure for `CS(=O)(=O)NC(=O)c1cc(F)c(Oc2cccc(C#N)c2)cc1F` [Example 125, 4-(3-cyanophenoxy)-2,5-difluoro-N-(methylsulfonyl)benzamide]: above 3000 nM.
Turning to `COc1ccc(C)cc1Oc1cc(F)c(C(=O)NS(C)(=O)=O)cc1F` [Example 86, 2,5-difluoro-4-(2-methoxy-5-methylphenoxy)-N-(methylsulfonyl)benzamide], the IC50 is above 1000 nM.
Next, `CS(=O)(=O)NC(=O)c1cc(Cl)c(Oc2ccc(C#N)cc2)cc1F` [Example 286, 5-chloro-4-(4-cyanophenoxy)-2-fluoro-N-(methylsulfonyl)benzamide]: 3400 nM.
Next, `CS(=O)(=O)NC(=O)c1ccc(Oc2ccccc2F)c(Cl)c1` [Example 282, 3-chloro-4-(2-fluorophenoxy)-N-(methylsulfonyl)benzamide]: 1200 nM.
The same measure for `Cc1cc(F)ccc1Oc1cc(F)c(C(=O)NS(C)(=O)=O)cc1F` [Example 154, 2,5-difluoro-4-(4-fluoro-2-methylphenoxy)-N-(methylsulfonyl)benzamide]: above 3000 nM; for `CS(=O)(=O)NC(=O)c1cc(Cl)c(Oc2cccc3ccccc23)cc1F` [Example 287, 5-chloro-2-fluoro-N-(methylsulfonyl)-4-(1-naphthyloxy)benzamide]: 2100 nM.
On to `COc1cc(C)ccc1Oc1ccc(C(=O)NS(C)(=O)=O)cc1` [Example 189, 4-(2-methoxy-4-methylphenoxy)-N-(methylsulfonyl)benzamide], for which the IC50 was above 10000 nM.
The same measure for `COc1cccc(Oc2cc(F)c(C(=O)NS(C)(=O)=O)cc2F)c1` [Example 134, 2,5-difluoro-4-(3-methoxyphenoxy)-N-(methylsulfonyl)benzamide]: above 3000 nM; for `CCOc1cccc(Oc2cc(F)c(C(=O)NS(C)(=O)=O)cc2Cl)c1` [Example 298, 5-chloro-4-(3-ethoxyphenoxy)-2-fluoro-N-(methylsulfonyl)benzamide]: 200 nM; for `Cc1ccc(Oc2ccc(C(=O)NS(C)(=O)=O)cc2)c(C)c1` [Example 172, 4-(2,4-dimethylphenoxy)-N-(methylsulfonyl)benzamide]: 16000 nM.
